Legend:
Format in all cases: in vivo
[1] = test system: Monochoria vaginalis; assay: Test Example 12: herbicidal effect test by treatment during growing period in paddy field; settings: 120 g/10a; treatment seven days after sowing in flooded paddy pot; assessed 14 days after treatment
Method in brief: (§1)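 Read-out: weed suppression (%) = (1 − treated/untreated mean dry weight) × 100, scored 14 days after treatment with two replications. Pots held puddled paddy soil, 30 seeds per species sown 0–1 cm, flooded ~3 cm. Post-emergence dropwise water application at 7 days after sowing, 120 g a.i./10 are.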

[2] = test system: Echinochloa crus-galli; assay: as above; settings: 120 g/10a; treatment seven days after sowing in flooded paddy pot; assessed 14 days after treatment
Method in brief: as §1

[3] = test system: Lindernia pyxidaria; assay: as above; settings: 120 g/10a; treatment seven days after sowing in flooded paddy pot; assessed 14 days after treatment
Method in brief: as §1

[4] = test system: Scirpus juncoides; assay: as above; settings: 120 g/10a; treatment seven days after sowing in flooded paddy pot; assessed 14 days after treatment
Method in brief: as §1

[5] = test system: Monochoria vaginalis; assay: Test Example 11: herbicidal effect test by soil treatment in paddy field; settings: 120 g/10a active ingredient, 14 days after treatment
Method in brief: (§2)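 Seeds were sown 0-1 cm deep in puddled, fertilised paddy soil in Wagner pots and kept under about 3 cm of flooding in a greenhouse. Diluted emulsifiable concentrate was added dropwise right after sowing at 120 g a.i. per 10 are. Suppression (%) came from dry weight versus untreated pots after 14 days, two replicates.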

[6] = test system: Echinochloa crus-galli; assay: as above; settings: 120 g/10a active ingredient, 14 days after treatment
Method in brief: as §2

[7] = test system: Lindernia pyxidaria; assay: as above; settings: 120 g/10a active ingredient, 14 days after treatment
Method in brief: as §2

[8] = test system: Scirpus juncoides; assay: as above; settings: 120 g/10a active ingredient, 14 days after treatment
Method in brief: as §2

SMILES | Weed suppression rate (%) Monochoria vaginalis [1] [%] | Weed suppression rate (%) Echinochloa crus-galli [2] [%] | Weed suppression rate (%) Lindemia pyxidaria [3] [%] | Weed suppression rate (%) Scirpus juncoides [4] [%] | Weed suppression rate (%) Monochoria vaginalis [5] [%] | Weed suppression rate (%) Echinochloa crus-galli [6] [%] | Weed suppression rate (%) Lindemia pyxidaria [7] [%] | Weed suppression rate (%) Scirpus juncoides [8] [%]
CC(C)N(C(=O)n1cnn(S(=O)(=O)c2ccccc2Cl)c1=O)c1ccc(F)cc1Cl [Compound 11-519] | 70 | 80 | 70 | 80 | 70 | 100 | 100 | 100
CC(C)N(C(=O)n1cnn(S(=O)(=O)c2ccc(F)cc2)c1=O)c1c(F)c(F)cc(F)c1F [Compound 11-480] | 70 | 100 | 80 | 100 | 80 | 100 | 90 | 90
Cc1cc(C)c(S(=O)(=O)n2ncn(C(=O)N(c3cccc(F)c3F)C(C)C)c2=O)c(C)c1 [Compound 11-862] | 100 | 100 | 80 | 100 | 100 | 100 | 100 | 100
CC(C)N(C(=O)n1cnn(S(C)(=O)=O)c1=O)c1cccc(F)c1 [Compound 11-3] | 80 | 90 | 80 | 90 | 80 | 90 | 80 | 90
Cc1ccc(S(=O)(=O)n2ncn(C(=O)N(c3c(F)cccc3F)C(C)C)c2=O)cc1 [Compound 11-639] | 70 | 100 | 70 | 70 | 70 | 100 | 100 | 100
Cc1ccc(N(C(=O)n2cnn(S(=O)(=O)c3c(F)c(F)c(F)c(F)c3F)c2=O)C(C)C)c(F)c1 [Compound 11-825] | 80 | 90 | 80 | 90 | 80 | 90 | 80 | 90
CC(C)N(C(=O)n1cnn(S(=O)(=O)c2ccc(F)cc2)c1=O)c1ccccc1F [Compound 11-465] | 80 | 90 | 80 | 90 | 80 | 90 | 80 | 90
CC(C)N(C(=O)n1cnn(S(=O)(=O)c2ccccc2Cl)c1=O)c1c(F)cc(F)cc1F [Compound 11-516] | 80 | 100 | 70 | 70 | 80 | 100 | 90 | 90
Cc1ccc(N(C(=O)n2cnn(S(=O)(=O)c3ccc(C(C)(C)C)cc3)c2=O)C(C)C)c(F)c1 [Compound 11-696] | 80 | 90 | 80 | 90 | 80 | 90 | 80 | 90
CC(C)N(C(=O)n1cnn(S(=O)(=O)c2ccccc2F)c1=O)c1ccc(Br)cc1Cl [Compound 11-413] | 70 | 60 | 70 | 70 | 80 | 80 | 90 | 80
CC(C)N(C(=O)n1cnn(S(=O)(=O)c2ccccc2F)c1=O)c1ccc(C(F)(F)F)cc1F [Compound 11-419] | 80 | 90 | 60 | 60 | 60 | 100 | 100 | 70
CC(C)N(C(=O)n1cnn(S(=O)(=O)c2cccs2)c1=O)c1c(F)c(F)cc(F)c1F [Compound 11-1027] | 90 | 100 | 80 | 100 | 90 | 100 | 100 | 100
CC(C)N(C(=O)n1cnn(S(=O)(=O)C2CCCCC2)c1=O)c1ccc(C#N)cc1Cl [Compound 11-316] | 80 | 90 | 80 | 90 | 80 | 90 | 80 | 90
CC(C)N(C(=O)n1cnn(S(C)(=O)=O)c1=O)c1ccc(F)c(F)c1F [Compound 11-15] | 60 | 70 | 60 | 100 | 60 | 90 | 70 | 60
CC(C)N(C(=O)n1cnn(S(=O)(=O)c2c(F)cccc2F)c1=O)c1c(F)cc(F)cc1F [Compound 11-777] | 80 | 90 | 70 | 70 | 80 | 100 | 90 | 100
CC(C)N(C(=O)n1cnn(S(=O)(=O)c2ccc(F)cc2)c1=O)c1c(F)cc(F)cc1F [Compound 11-479] | 80 | 100 | 70 | 80 | 80 | 100 | 100 | 100
CC(C)N(C(=O)n1cnn(S(=O)(=O)C2CC2)c1=O)c1c(F)c(F)cc(F)c1F [Compound 11-197] | 100 | 100 | 80 | 90 | 70 | 100 | 100 | 100
CC(C)N(C(=O)n1cnn(S(=O)(=O)c2ccc(C(C)(C)C)cc2)c1=O)c1c(F)c(F)cc(F)c1F [Compound 11-687] | 80 | 100 | 70 | 70 | 100 | 80 | 100 | 90
Cc1ccc(N(C(=O)n2cnn(S(=O)(=O)c3cccs3)c2=O)C(C)C)c(F)c1 [Compound 11-1036] | 80 | 90 | 80 | 90 | 90 | 90 | 90 | 90
O=C(N(CC(F)(F)F)c1ccc(F)cc1F)n1cnn(S(=O)(=O)C2CCCCC2)c1=O [Compound 11-1156] | 60 | 90 | 90 | 30 | 30 | 70 | 80 | 30

Reference: patent US11076595B2, “1-(n,n-disubstituted carbamoyl) 4-(substituted sulfonyl)triazolin-5-one derivative, 4-(n,n-disubstituted carbamoyl) 1-(substituted sulfonyl)triazolin-5-one derivative, and herbicide containing said derivative as active ingredient” (HOKKO CHEMICAL INDUSTRY CO., LTD., priority 2017, dated 2021)
